Data set [1] relates to latently infected cell lines (U1 and ACH2). Kind of data set: HIV-1 expression from latently infected cell lines, statements for both lines. The class given is cell-based. Here is the method: (§1) HIV-1 activation from U1 cells: U1 cells (obtained through the NIH AIDS Reagent Program) are seeded at 2*10^5/well in a 96-well format in 100 uL RPMI media supplemented with 10% heat inactivated Foetal Bovine Serum and 1% penicillin/streptomycin. HDACi and PMA as positive control is added at desired concentrations in 100 uL. Identical DMSO levels is used for untreated control. All stimulations are performed in triplicate. 48 hours later supernatant is harvested and left for inactivation in 1% Empegen for 1 hour. Levels of HIV-1 p24 gag levels is determined by ELISA as described by the manufacturer (Aalto Bioreagents, Dublin, Ireland).
as §1, with “ACH2” for “U1”, “1*10^5/well” for “2*10^5/well”, “Samples are diluted 1/500 and levels” for “Levels”, “gag” for “gag levels”

Data set [2] has as its system HIV proviral DNA in CD4+ T cells. Kind of data set: Total HIV proviral DNA in purified CD4+ T cells of treated patients. The class given is in vivo, HIV-1. On the procedure: DNA was isolated from 1×10^6 CD4+ T cells using AllPrep DNA/RNA Mini kit according to the manufacturer's specifications (Qiagen, Denmark). Cell equivalents were based on RNAseP amplification. The following primers were used to target human RNAseP 5′-[…]-3′ (forward) (SEQ ID NO: 5) and 5′-[…]-3′ (reverse) (SEQ ID NO: 6). Amplification reactions were carried out in duplicates with a primer concentration of 0.5 μM, 10 μL SsoFast™ EvaGreen® Supermix and 1 μL 100-fold diluted DNA as template in 20 μl total volume.
Using the RNAsePgenome copy number, sample DNA was diluted to 50,000 cell equivalents per PCR reaction. To determine the frequency of CD4+ T cells carrying HIV DNA, we prepared a standard curve obtained by serially diluted DNA from 8E5 cells (carrying one integrated provirus per genome) combined with DNA from HIV-negative PBMCs (305, 153, 76, 38, 19, 9 HIV DNA copies and 100,000 HIV negative cell equivalents per well). The following primers were used to target HIV-DNA: 5′-[…]-3′ (forward) (SEQ ID NO: 7) and 5′-[…]-3′ (reverse) (SEQ ID NO: 8).
The amplification reaction was carried out in triplicates with a primer concentration of 0.5 μM, 10 μL SsoFast™ EvaGreen® Supermix and 100,000 genomes as template in 20 μl total volume on a Bio-Rad CFX96™ Real-time PCR Platform. PCR conditions were as follows: A denaturation step at 95° C. followed by 45 cycles of 10 seconds at 95° C. and 25 seconds at 62° C. Subsequently a melt curve was obtained heating from 65° C. to 95° C. with a 0.5° C. increment for 5 seconds. Cycle cut off was set at 39 cycles. Amplification products were verified by dissociaton curve. Copy number of HIV DNA per 1×10^6 CD4+ T cells was calculated from the real-time PCR results.
From the HIV DNA standard curve we set a lower limit of quantification of 12 copies HIV DNA/10^6 CD4+ T cells.
Samples were drawn from two patients at Baseline (prior to initiation of panobinostat treatment) and after 4 weeks and 8 weeks cyclic panobinostat treatment 20 mg TIW every other week.

Data set [3] has as its system CD4+ T cells. Kind of data set: CD4+ T cell counts in blood during panobinostat treatment. The data set is classed as in vivo, human. As to conditions: intermittent dosing over 51 days, 20 mg oral TIW every other week, HIV-1 patients on HAART. Here is the method: Measurement of CD4+ T cell counts was performed by flow cytometry as part of routine diagnostics evaluation of HIV-1 patients.

From patent US20150031739A1, “PANOBINOSTAT FOR USE IN THE TREATMENT OF HIV-1” (Aarhus Universitet, priority 2012, published 2015) come the findings set out here.

The structures appear in SMILES notation.

With `Cc1[nH]c2ccccc2c1CCNCc1ccc(/C=C/C(=O)NO)cc1` [LBH589, N-Hydroxy-3-[4-[2-(2-methyl-1H-indol-3-yl)ethylaminomethyl]phenyl]-2(E)-propenamide], the “rank order of induced HIV-1 expression” value in data set [1] (direct comparison at the concentration obtained with clinical use) was “LBH589>ITF2357 and PXD101>SAHA”. In addition, in data set [1] (latently infected cell lines), the “rank order of potency when stimulating HIV-1 expression” value was “LBH589>ITF2357 and PXD101>SAHA>VPA”. Further, the “concentration range in which HIV-1 expression is induced” value in data set [1] (latently infected cell lines U1 and ACH2) was 8 to 32 nM. In addition, the “proviral DNA level” value is on record as “remained low” in data set [2] (patient A, end of treatment (8 weeks), baseline 46 copies/10^6 CD4+ T cell); “dropped below detection” in data set [2] (patient A, first two treatment cycles (4 weeks), 20 mg TIW every other week, baseline 46 copies/10^6 CD4+ T cell, lower limit of quantification 12 copies); 125 copies/10^6 CD4+ T cell in data set [2] (patient B, after 4 weeks, baseline 173 copies/10^6 CD4+ T cells); “undetectable” in data set [2] (patient B, end of treatment (8 weeks), baseline 173 copies/10^6 CD4+ T cells, lower limit of quantification 12 copies). Besides, the “effect on CD4+ T cell counts in blood” value in data set [3] is given as “no immune deterioration”.
